# In patent US20060051754A1, “Transporter selectively transporting sulfate conjugate and its gene” (Japan Science and Technology Agency, priority 2002, published 2006):
# Where a name gives a salt, the structure may show the parent alone.
# Legend:
# Type in all cases: cell-based
# human OAT7 [1] = target: T1, human OAT7 (Homo sapiens, UniProt Q8IVM8); test: inhibition of [3H]estrone-sulfate conjugate uptake by OAT7-expressing oocyte (substrate selectivity); conditions: [3H]estrone-sulfate conjugate 1 μM, 100 μM of unlabeled compound; FIGS. 8, 9, 10A and 10B
# T1 construct: expressed in transfected cells
# T1 sequence (Q8IVM8 whole entry): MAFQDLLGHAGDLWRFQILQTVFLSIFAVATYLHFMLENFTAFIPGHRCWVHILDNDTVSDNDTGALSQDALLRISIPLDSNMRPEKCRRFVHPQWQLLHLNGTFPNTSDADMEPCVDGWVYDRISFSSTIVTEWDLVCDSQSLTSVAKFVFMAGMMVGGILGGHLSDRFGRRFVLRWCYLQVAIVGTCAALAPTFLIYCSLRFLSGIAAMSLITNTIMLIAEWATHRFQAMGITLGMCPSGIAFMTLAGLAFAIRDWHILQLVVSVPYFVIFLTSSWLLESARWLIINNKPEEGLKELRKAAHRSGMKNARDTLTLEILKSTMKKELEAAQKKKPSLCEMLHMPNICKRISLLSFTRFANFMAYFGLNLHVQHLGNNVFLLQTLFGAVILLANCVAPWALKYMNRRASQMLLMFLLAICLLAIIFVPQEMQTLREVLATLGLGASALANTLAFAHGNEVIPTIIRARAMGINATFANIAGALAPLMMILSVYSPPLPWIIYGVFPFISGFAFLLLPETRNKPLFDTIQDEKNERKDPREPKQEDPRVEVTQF
# Experimental: (§1) A substrate uptake experiment was performed on the oocyte into which the human OAT7 gene cRNA was injected and a control oocyte into which water was injected, using the [^3H]estrone-sulfate conjugate and the [^3H]dehydroepiandrosterone-sulfate conjugate as the substrates in accordance with the method of Kanai et al. (Kanai and Hediger, Nature, Vol. 360, pp. 467 to 471, 1992) as described below. After leaving the oocyte in an ND96 solution (96 mM sodium chloride, 2 mM potassium chloride, 1.8 mM calcium chloride, 1 mM magnesium chloride, 5 mM HEPES, pH7.4) containing the [^3H]estrone-sulfate conjugate (50 nM) and the [^3H]dehydroepiandrosterone-sulfate conjugate (100 nM) as a substrate for 60 minutes, and an uptake ratio of the substrate was measured by way of counting radioactivity taken up into the cells.
# In the [^3H]estrone-sulfate conjugate uptake experiment using an oocyte into which the human OAT7 gene cRNA was injected, the effect of addition of various organic anions and organic cations on the system was examined.
# The [^3H]estrone-sulfate conjugate uptake experiment was conducted using the oocyte into which the human OAT7 gene cRNA was injected and in accordance with the method described in Example 2(1). In the experiment, [^3H]estrone-sulfate conjugate (1 μM) uptake was measured under the presence and the absence of 100 μM of various compounds (unlabeled).
# Since OAT7 is the organic anion transporter existing in the liver, effects of various organic anions which are considered to be transported in the hepatic cells on the [^3H]estrone-sulfate conjugate uptake by way of OAT7 were examined.
# In order to clarify which one of the sulfate conjugate, the glucuronide conjugate, the glutathione conjugate is accepted by OAT7, effects of various conjugate compounds on the [^3H]estrone-sulfate conjugate uptake were examined.
# human OAT7 [2] = target: T1, human OAT7; test: substrate uptake experiment by oocyte into which the human OAT7 gene cRNA was injected
# Experimental: After expressing the human OAT7 gene cRNA in an oocyte, [^3H]estrone-sulfate conjugate uptake and [^3H]dehydroepiandrosterone-sulfate conjugate uptake were measured.
# After injecting 20 ng of the human OAT7 gene cRNA into the oocyte to be expressed, a 3-days culture was performed.
# as §1
# Time passage of the substrate uptake by the oocyte into which the human OAT7 gene cRNA was injected and a control oocyte into which water was injected was observed using the [^3H]estrone-sulfate conjugate (50 nM) as the substrate and in accordance with the method of Example 2(1).
# The effect of salt added in the culture used in the [^3H]estrone-sulfate conjugate (50 nM) uptake experiment were examined using an oocyte into which the human OAT7 gene cRNA was injected and a control oocyte into which water was injected.
# The [^3H]estrone-sulfate conjugate uptake experiment was conducted in accordance with the method described in Example 2(1) using the oocyte into which the human OAT7 gene cRNA was injected. In the experiment, a sodium ion free absorption solution (wherein 96 mM sodium chloride was substituted with 96 mM choline chloride) was used as an uptake solution in place of the standard absorption solution for the purpose of observing the effect of the sodium ion.
# human OAT7 [3] = target: T1, human OAT7; test: Michaelis-Menten kinetics test on OAT7 (oocyte uptake); conditions: mean±standard error; OAT7-expressing oocyte; FIGS. 7A and 7B
# Experimental: as §1
# A Michaelis-Menten kinetics test on the liver specific organic anion transporter OAT7 selectively transporting a sulfate conjugate was conducted. The Michaelis-Menten kinetics test on OAT7 was performed by examining changes in uptake ratio of the substrate [^3H]estrone-sulfate conjugate and the [^3H]dehydroepiandrosterone-sulfate conjugate depending on the concentrations of the substrate [^3H]estrone-sulfate conjugate and the [^3H]dehydroepiandrosterone-sulfate conjugate. […]
SMILES,cys-inhibition effect on [3H]estrone-sulfate conjugate uptake (human OAT7 [1]),also measured
Cc1cc(=O)oc2cc(OS(=O)(=O)O)ccc12 [4-methylumbelliferyl sulfate conjugate],significant cys-inhibition effect,–
C[C@]12CC[C@H](OS(=O)(=O)O)CC1=CC[C@@H]1[C@@H]2CC[C@]2(C)C(=O)CC[C@@H]12 [dehydroepiandrosterone-sulfate conjugate],significant cys-inhibition effect,"[3H]dehydroepiandrosterone-sulfate conjugate uptake by oocytes in which OAT7 was expressed vs control oocyte into which water was injected (human OAT7 [2]; substrate 100 nM, ND96 solution pH7.4, 60 minutes, FIG. 6A): significantly greater; Km (human OAT7 [3]): 2.2 ± 0.3 µM"
C[C@]12CC[C@@H]3c4ccc(OS(=O)(=O)O)cc4CC[C@H]3[C@@H]1CCC2=O [estrone-sulfate conjugate],significant cys-inhibition effect,"[3H]estrone-sulfate conjugate uptake by oocytes in which OAT7 was expressed vs control oocyte into which water was injected (human OAT7 [2]; substrate 50 nM, ND96 solution pH7.4, 60 minutes, FIG. 6A): significantly greater; effect of change of extracellular sodium to choline on uptake (human OAT7 [2]; substrate 50 nM, 96 mM sodium chloride substituted with 96 mM choline chloride, FIG. 6C): no effect; time dependency of uptake by way of OAT7 (human OAT7 [2]; substrate 50 nM, FIG. 6B): increases substantially linearly in a time dependent manner till the passage of 120 minutes; Km (human OAT7 [3]): 8.7 ± 1.1 µM"
CC1(C)C(/C=C/C=C/C=C/C=C2\N(CCCCS(=O)(=O)[O-])c3ccc4ccccc4c3C2(C)C)=[N+](CCCCS(=O)(=O)[O-])c2ccc3ccccc3c21.[Na+] [indocyanin green],significant cys-inhibition effect,–
N=c1nc(N2CCCCC2)cc(N)n1OS(=O)(=O)O [minoxidil-sulfate conjugate],significant cys-inhibition effect,–
O=[N+]([O-])c1ccc(OS(=O)(=O)O)cc1 [p-nitrophenol-sulfate conjugate],significant cys-inhibition effect,–
O=C1OC(c2ccc(O)c(S(=O)(=O)O)c2)(c2ccc(O)c(S(=O)(=O)O)c2)c2c(Br)c(Br)c(Br)c(Br)c21 [sulfobromophthalein],significant cys-inhibition effect,–
C[C@]12CC[C@@H]3c4ccc(OS(=O)(=O)O)cc4CC[C@H]3[C@@H]1CC[C@@H]2O [β-estradiol-sulfate conjugate],significant cys-inhibition effect,–
